This is an account of results in patent US10973251B1, “Nutritional treatment for cancer” (The Board of Trustees of the Leland Stanford Junior …, priority 2015, dated 2021).

Holding throughout (format): cell-based, human
Assay [1] concerns H69. Description: relative growth in dropout media (XTT / CellTiter-Glo). The conditions noted are these: for relative growth: three days. The method, then: (§1) To establish the screening assay for the nutritional weakness of cancer cells, 5 human blood cancer cell lines, 4 human lung cancer cell lines, 1 human colon cancer cell line, 1 human liver cancer cell line, 5 human breast cancer cell lines, and 3 human prostate cancer cell lines were used (Table 1). All 19 cell lines were cultured in reconstituted complementary RPM11640 based media R-comp (Table 2) for more than 10 days before screening assays.
(§2) To test for nutritional weaknesses of cancer cell lines or primary cancer cells, each individual non-essential amino acid was dropped out from the R-comp media (Table 2). Multiple amino acid dropout media was used to test combinatorial effects. Prior to the experiments, cells were first acclimated in R-comp media, and then harvested and washed in EBSS solution. The cell density was adjusted to 1-3×10^5 cells/ml before adding to equal volumes of 2× dropout media plus 2× R-comp (positive control) in a 96-well plate. The plates were then placed in an incubator set at 37° C. with a 5% CO2 supply. Five technical replicates were used for each medium treatment. For each cell line, at least three biological replicates were performed with 2 time-points (day 1 and day 3).
(§3) Cell growth was analyzed with two cell viability methods (XTT and CellTiter-Glo-based assays). In the XTT-based assay, cell growth is measured by absorbance at 450 nm after adding the XTT reagent to each culture and incubating under the same culture conditions for 2 hours according to the manufacturer's instructions (ThermoFisher X6493). Absorption at 690 nm was also measured as background and subtracted from absorption at 450 nm. In the CellTiter-Glo-based assay (Promega, G7572), cell growth is measured by luminescence with a dwelling time of 200 milliseconds on a Tecan plate reader.
(§4) The relative growth is calculated with the following equation: Growth %=(readingdropout−average(readingsblank))/(average(readingsR-comp)−average(readingsblank))×100%
Background: Tetrazolium dyes change colour on reduction, which living cells bring about.

Assay [2] concerns H661. Described as above. The conditions noted are these: for relative growth: three days; for relief of suppressed growth by augmented supplementation (in words): cystine and tyrosine dropouts, 20 times. The method, then: as §1, §2, §3, §4
Assay [3] deals with H520. Described as above. The conditions noted are these: for relative growth: three days. The method, then: as §1, §2, §3, §4
Assay [4] relates to K562. The description is as above. Particulars: for relative growth: —Cys, three days, CellTiter-Glo. The method, then: as §1, §2, §3, §4
For orientation: In ATP-based viability assays light output follows the ATP content of the culture.

Assay [5] concerns H1437. The description is as above. The procedure:
as §1, §2, §3, §4

Assay [6] has as its system GA10. The assay is described as above. The procedure:
as §1, §2, §3, §4

Assay [7] has as its system Jurkat. Described as above. The method, then: as §1, §2, §3, §4
In assay [8] the test system is cancer cell lines. Description: growth assay in dropout media, cancer cell lines as a group. The conditions noted are these: up to 50× strength; cell lines sensitive to cystine dropout. The method, then:
as §1
To test for nutritional weaknesses of cancer cell lines or primary cancer cells, each individual non-essential amino acid was dropped out from the R-comp media (Table 2). Multiple amino acid dropout media was used to test combinatorial effects. Prior to the experiments, cells were first acclimated in R-comp media, and then harvested and washed in EBSS solution. […]
Cell growth was analyzed with two cell viability methods (XTT and CellTiter-Glo-based assays). In the XTT-based assay, cell growth is measured by absorbance at 450 nm after adding the XTT reagent to each culture and incubating under the same culture conditions for 2 hours according to the manufacturer's instructions (ThermoFisher X6493). Absorption at 690 nm was also measured as background and subtracted from absorption at 450 nm. In the CellTiter-Glo-based assay (Promega, G7572), cell growth is measured by luminescence with a dwelling time of 200 milliseconds on a Tecan plate reader. […]

The subject of assay [9] is HCT116. Description: relative growth in dropout media (XTT / CellTiter-Glo). Particulars: for growth with vitamin supplementation in the absence of cystine (in words): 50×. The method, then:
as §1, §2, §3, §4

The test system of assay [10] is U937. The assay is described as above. Particulars: for relief of suppressed growth by augmented supplementation (in words): cystine and tyrosine dropouts, 20 times. The method, then:
as §1, §2, §3, §4

Assay [11] deals with HCC1187. Described as above. The conditions noted are these: —Cys (5x Met), vitamin supplementation 50x, three days, Cell-Titer-Glo. The procedure: as §1, §2, §3, §4
The test system of assay [12] is HCC1599. The description is as above. The procedure:
as §1, §2, §3, §4

Assay [13] has as its system MDA-MB-453. Described as above. The method, then: as §1, §2, §3, §4
The test system of assay [14] is C4-28. The description is as above. Particulars: —Cys (5x Met), vitamin supplementation 50x, three days, Cell-Titer-Glo. The method, then:
as §1, §2, §3, §4

The subject of assay [15] is VCaP. The description is as above. Particulars: —Cys (5x Met), vitamin supplementation 50x, three days, Cell-Titer-Glo. The method, then: as §1, §2, §3, §4
The subject of assay [16] is HL60. Described as above. The conditions noted are these: —Cys (5x Met), vitamin supplementation 50x, three days, Cell-Titer-Glo. The procedure: as §1, §2, §3, §4
In assay [17] the test system is MDA-MB-231. The description is as above. The conditions noted are these: —Cys (5x Met), vitamin supplementation 50x, three days, Cell-Titer-Glo. The procedure:
as §1, §2, §3, §4

The subject of assay [18] is HCC70. The description is as above. The conditions noted are these: —Cys (5x Met), vitamin supplementation 50x, three days, Cell-Titer-Glo. The procedure: as §1, §2, §3, §4
For assay [19], the system named is PC-3. The assay is described as above. Particulars: —Cys (5x Met), vitamin supplementation 50x, three days, Cell-Titer-Glo. The procedure:
as §1, §2, §3, §4

Assay [20] has as its system HepG2. The description is as above. The conditions noted are these: —Cys (5x Met), vitamin supplementation 50x, three days, Cell-Titer-Glo. The procedure:
as §1, §2, §3, §4

The mark [21] stands for this setting: —Cys, +Cys 0.01x (5x Met), CellTiter-Glo.
Setting [22] is: —Cys, +Cys 0.02x (5x Met), CellTiter-Glo.
The mark [23] stands for this setting: —Cys, +Cys 0.05x (5x Met), CellTiter-Glo.
The mark [24] stands for this setting: —Cys, +Cys 0.1x (5x Met), CellTiter-Glo.
Setting [25] is: —Cys, +Cys 0.5x (5x Met), CellTiter-Glo.
Setting [26] is: 0.1× level of cystine supplementation.
The mark [27] stands for this setting: —Cys, +Glut 2.5x, CellTiter-Glo.
The mark [28] stands for this setting: —Cys, +Glut 100x, CellTiter-Glo.
Setting [29] is: —Cys (5x Met), vitamin supplementation 50x, Cell-Titer-Glo.
The mark [30] stands for this setting: —Cys (5x Met), vitamin supplementation 50x, three days, Cell-Titer-Glo.

With `N[C@@H](CSSC[C@H](N)C(=O)O)C(=O)O` [+Cys (5x Met), cystine], the relative growth in assay [1] (setting [21]) is recorded as 1.2%; in assay [1] (setting [22]) it was 1.3%; in assay [1] (setting [23]), 1.2%; in assay [1] (setting [24]), 2.1%; in [1] (setting [25]), 51.8%; in [2] (setting [21]) it was 0.1%. Further, the relative growth in assay [2] (setting [22]) came to 0.1%; in assay [2] (setting [23]) it was 0.1%; in [2] (setting [24]), 0.1%; in assay [2] (setting [25]), 103.2%; in [3] (setting [21]), 5.2%; in assay [3] (setting [22]), 4.7%. Moreover, the relative growth in assay [3] (setting [23]) was 9.4%; in [3] (setting [24]), 41.8%; in [3] (setting [25]), 110.4%; in assay [4] (+Cys 0.01x (5x Met)), 1.9%; in assay [4] (+Cys 0.02x (5x Met)), 2.2%; in assay [4] (+Cys 0.05x (5x Met)) it was 9.5%. The relative growth in assay [4] (+Cys 0.1x (5x Met)) is 36.5%; in [4] (+Cys 0.5x (5x Met)) it was 101.5%. Further, the “restoration of growth by adding back cystine (in words)” value in [3] (setting [26]) is recorded as “merely restored”; in [4] (setting [26]), “substantially restored to the levels of the control”.

In the case of `N[C@@H](CCC(=O)N[C@@H](CS)C(=O)NCC(=O)O)C(=O)O` [+Glut, glutathione], the “restoration of growth suppressed by cystine dropout (in words)” value in [5] (10× supplementation) is reported as “substantially restored the suppressed growth”; in assay [1] (10× supplementation) it was “not significantly”; in assay [6] (10× supplementation), “not significantly”; in assay [7] (10× supplementation), “substantially restored the suppressed growth”. In addition, the relative growth in assay [1] (setting [27]) is on record as 1.4%; in [1] (—Cys, +Glut 10x, CellTiter-Glo), 2.1%; in [1] (—Cys, +Glut 50x, CellTiter-Glo), 3.6%; in assay [1] (setting [28]), 2.8%; in assay [2] (setting [27]) it was 0.2%; in [2] (—Cys, +Glut 10x, CellTiter-Glo) it was 13.0%. The relative growth in assay [2] (—Cys, +Glut 50x, CellTiter-Glo) stood at 75.4%; in assay [2] (setting [28]), 41.1%; in [3] (setting [27]), 21.3%; in assay [3] (—Cys, +Glut 10x, CellTiter-Glo), 71.3%; in assay [3] (—Cys, +Glut 50x, CellTiter-Glo), 97.8%; in [3] (setting [28]) it was 105.7%. In addition, the relative growth in [4] (+Glut 2.5x) was 16.2%; in assay [4] (+Glut 10x) it was 78.8%; in [4] (+Glut 50x), 84.4%; in [4] (+Glut 100x), 98.9%.

For the molecule `CSCC[C@H](N)C(=O)O` [+Met, methionine], the “promotion of growth under cystine dropout (in words)” value in assay [8] is “failed to promote the growth”. For the same molecule, the relative growth turned out to be 1.2% in assay [1] (—Cys, +Met 10x, CellTiter-Glo); 1.2% in assay [1] (—Cys, +Met 50x, CellTiter-Glo); 0.1% in [2] (—Cys, +Met 10x, CellTiter-Glo); 0.1% in assay [2] (—Cys, +Met 50x, CellTiter-Glo); 7.3% in assay [3] (—Cys, +Met 10x, CellTiter-Glo); 16.7% in assay [3] (—Cys, +Met 50x, CellTiter-Glo). Further, the relative growth in assay [4] (+Met 10x) amounted to 1.6%; in assay [4] (+Met 50x), 1.1%. Besides, in [9] (10×), the “restoration of growth in the absence of cystine (in words)” value is on record as “substantially restore HCT116 growth”. For the same molecule, the “relief of suppressed growth by augmented supplementation (in words)” value in assay [10] and in [2] was “not brought back” each time.

In the case of `Cc1ncc(C[n+]2csc(CCO)c2C)c(N)n1` [B1, thiamine], the relative growth in assay [1] (setting [29]) came out at 5.8%; in assay [11], 6.2%; in [2] (setting [29]) it was 1.5%; in assay [3] (setting [29]), 0.5%. For the same molecule, the “growth with vitamin supplementation in the absence of cystine (in words)” value is “largely restored” in assay [9], “substantially restored” in assay [12] and “growth was promoted” in [13] (50×).

As for `Cc1cc2nc3c(=O)[nH]c(=O)nc-3n(C[C@H](O)[C@H](O)[C@H](O)CO)c2cc1C` [B2, riboflavin], the relative growth in assay [1] (setting [29]) came out at 5.0%; in assay [11] it was 1.0%; in assay [2] (setting [29]), 0.2%; in [3] (setting [29]), 0.3%. For the same molecule, the “growth with vitamin supplementation in the absence of cystine (in words)” value in assay [9] is recorded as “even more drastic growth suppression”.

Turning to `NC(=O)c1cccnc1` [B3, niacinamide], the relative growth in assay [1] (setting [29]) was 5.3%; in assay [11] it was 3.4%; in assay [2] (setting [29]), 0.2%; in assay [3] (setting [29]) it was 0.3%.

With `Cc1ncc(CO)c(CO)c1O` [B6, pyridoxine], the relative growth in [1] (setting [29]) is given as 5.2%; in assay [11] it was 2.2%; in assay [2] (setting [29]), 0.9%; in [3] (setting [29]) it was 0.2%.

On to `O=C(O)CCCC[C@@H]1SC[C@@H]2NC(=O)N[C@@H]21` [B7, biotin], for which the relative growth in [1] (setting [29]) is 5.7%; in [11], 5.8%; in [2] (setting [29]), 0.2%; in assay [3] (setting [29]), 0.2%.

With `N[C@@H](Cc1ccccc1)C(=O)O` [phenylalanine], the “relief of suppressed growth by augmented supplementation (in words)” value in [10] and in assay [2] was “not brought back” throughout.

For the molecule calcium pantothenate [B5], the relative growth was determined as 0.2% in assay [14]; 0.1% in assay [15]; 0.5% in [5] (setting [30]); 0.1% in [16]; 5.5% in assay [1] (setting [29]); 0.0% in assay [11]. Also, the relative growth in assay [17] is 0.2%; in [9] (setting [30]), 56.4%; in assay [18] it was 0.9%; in assay [6] (setting [30]), 4.3%; in assay [10] (setting [30]), 0.0%; in assay [12] (setting [30]) it was 4.9%. The relative growth in assay [2] (setting [29]) worked out at 0.2%; in assay [19] it was 0.8%; in [7] (setting [30]), 0.3%; in assay [3] (setting [29]), 0.3%; in assay [20], 1.4%; in assay [13] (setting [30]) it was 104.4%.
